The numbers were not newly measured in US20260199305A1, “LONG-ACTING ORAL PHARMACEUTICAL COMPRISING HYPOXIA-INDUCIBLE FACTOR PROLYL HYDROLASE INHIBITOR AND USE THEREOF” (Kind Pharmaceutical, priority 2023, published 2026), which cites them from elsewhere.

Read-outs that look alike come from different tables or passages of the source.

The conditions of this data set: cited from earlier work.

For the compound `O=C(O)CNC(=O)c1ncc(-c2cccc(Cl)c2)cc1O` [Vadadustat], the t½ – broadly, how long it takes for the measured level to halve – (literature value) was 4.7 to 9.1 h. Take `Cn1c(=O)cc(N2CCC[C@@H](N)C2)n(Cc2cc(F)ccc2C#N)c1=O` [Trelagliptin]: under “literature value (J Diabetes Investig 2018)”, the “elimination half-life (t½)” value is 38.44 to 54.26 h.

Turning to `O=C(O)CNC(=O)c1c(O)cc(CCc2ccccc2)n2ncnc12` [Enarodustat], the t½ (literature value) was 8.2 to 8.7 h. Consider `O=C(O)CNC(=O)c1c(O)c2ccccc2n(OCC2CC2)c1=O` [Desidustat], for which, where the note is “literature value”, the t½ was 6 to 15 h. `O=c1c(-n2ccnn2)c[nH]n1-c1cc(N2CCOCC2)ncn1` [Molidustat]: the t½ (literature value) was 4 to 10 h. Turning to `O=C(O)CNC(=O)C1C(=O)N(C2CCCCC2)C(=O)N(C2CCCCC2)C1=O` [Daprodustat], under “in patients with chronic kidney disease anemia, literature”, the t½ was ~ 7 hours.

In the case of `Cc1nc(C(=O)NCC(=O)O)c(O)c2ccc(Oc3ccccc3)cc12` [Roxadustat], where the note is “literature value”, the t½ is 12 to 15 h.
